The test system of series [1] is AAMU-Ab. Briefly: Competitive antigen ELISA, cross-reactivity of AAMU-Ab. The series is classed as binding, rabbit. The conditions noted are these: 0 = absence of inhibition or inhibition no higher than 40% at highest concentration tested (5 × 10^−3 M). The procedure: (§1) Competitive Antigen Elisa
(§2) Buffers and water without additives are filtered through millipore filters and kept for 1 week. BSA, antibodies, Tween™ 20 and horse radish peroxidase conjugates are added to these buffers and water just prior to use. Urine samples are usually collected 4 hours after drinking a cup of coffee (instant or brewed with approximately 100 mg of caffeine per cup) and stored at −80° C. The urine samples are diluted 10 times with sodium phosphate buffer (620 mosm, pH 7.50) and are subsequently diluted with water to give concentrations of AAMU and 1X no higher than 3×10^−6 M in the ELISA. All the pipettings are done with an eight-channel pipette, except those of the antibody and sample solutions. Starting with the last well, 100 μL of a carbonate buffer (100 mM, pH 9.6) containing 2.5 μg mL-1 antibodies are added to each well. After 90 min. at room temperature, the wells are washed three times with 100 mL of TPB: isotonic sodium phosphate buffer (310 mosm, pH 7.50) containing 0.05% Tween™ 20.
(§3) After the initial wash, unoccupied sites are blocked by incubation for 90 min. at room temperature with 100 μL TBP containing 3% BSA. The wells are washed four times with 100 μL TPB. The washing is followed by additions of 50 μL of 12 mg mL^−1 AAMU-HRP or 1X-HRP conjugate in 2× TPB containing 2% BSA, and 50 μL of either water, standard (13 standards; AAMU or 1X, 2×10^−4 to 2×10^−8 M) or sample in duplicate. The microplate is gently shaken with an orbital shaker at room temperature for 3-4 hours. The wells are washed three times with 100 μL TPB containing 1% BSA and three times with water containing 0.05% Tween™ 20. To the washed plate is added 150 μL of a substrate buffer composed of citric acid (25 mM) and sodium phosphate dibasic buffer (50 mM, pH 5.0) containing 0.06% hydrogen peroxide and 0.04% o-phenylenediamine hydrochloride.
as §2, with “were” for “are”, “They were” for “The urine samples are”, “mL-^1” for “mL-1”, “was pipetted.” for “are added to each well.”, “μL” for “mL”
(§4) After the initial wash, unoccupied sites were blocked by incubation for 90 min. at room temperature with 100 μL TBP containing 3% BSA. The wells were washed four times with 100 μL TPB. This was followed by additions of […] of 12 mg mL^−1 AAMU-HRP or 1X-HRP conjugate in 2× TPB containing 2% BSA, and 50 μL of either water, standard (13 standards; AAMU or 1X, 2×10^−4 to 2×10^−8 M) or sample in duplicate. The microplate was gently shaken with an orbital shaker at room temperature for 3-4 hours. The wells were washed three times with 100 μL with TPB containing 1% BSA and three times with water containing 0.05% Tween™ 20. To the washed plate was added 150 μL of a substrate buffer composed of citric acid (25 mM) and sodium phosphate dibasic buffer (50 mM, pH 5.0) containing 0.06% hydrogen peroxide and 0.04% o-phenylenediamine hydrochloride. After 20 min. at room temperature with shaking, the reaction was stopped with 50 μL of 2.5 N HCl.
(§5) The cross reactivities of AAMU-Ab and 1X-Ab were tested using a wide variety of caffeine metabolites and structural analogs (Table 2 below).
Background: ELISA stands for enzyme-linked immunosorbent assay.

Series [2] deals with 1X-Ab. The series is described as follows: Competitive antigen ELISA, cross-reactivity of 1X-Ab. Format: binding, rabbit. The conditions noted are these: 0 = absence of inhibition or inhibition no higher than 40% at highest concentration tested (5 × 10^−3 M). As for the experimental part:
as §1, §2, §3
as §2, with “were” for “are”, “They were” for “The urine samples are”, “mL-^1” for “mL-1”, “was pipetted.” for “are added to each well.”, “μL” for “mL”
as §4, §5

In series [3] the test system is impotent men. The conditions noted are these: cited from earlier work.
In series [4] the test system is poor vs. extensive metabolizers. Conditions: cited from earlier work.
Series [5] concerns slow and fast acetylators. Conditions: cited from earlier work.
Series [6] relates to individuals prescribed sildenafil. The conditions noted are these: postmarketing; cited from earlier work.
[7] abbreviates: intracavernosal, mixed populations.

Like-named read-outs stand apart in the source and are kept apart here. Marks after values point to notes of the source that are not given here.

For the compound `Cn1c(=O)[nH]c2ncn(C)c2c1=O` [1,7-Dimethyl Xanthine (Paraxanthine), 1,7-Dimethyl Xanthine], the “% Cross-Reaction AAMU-Ab” value in series [1] stood at 0%. The “% Cross-Reaction IX-Ab” value in series [2] was found to be 0.5%.

Take `Nc1nc2nc[nH]c2c(=O)[nH]1` [Guanine]: the “% Cross-Reaction AAMU-Ab” value in series [1] came out at 0%. Also, the “% Cross-Reaction IX-Ab” value in series [2] was found to be 0%.

Regarding `O=c1[nH]c(=O)c2[nH]c(=O)[nH]c2[nH]1` [Uric acid], the “% Cross-Reaction AAMU-Ab” value in series [1] came to 0%. Moreover, the “% Cross-Reaction IX-Ab” value in series [2] came out at 0%.

On to `O=c1[nH]c(=O)c2[nH]cnc2[nH]1` [Xanthine], for which the “% Cross-Reaction AAMU-Ab” value in series [1] is listed as 0^a %. Besides, the “% Cross-Reaction IX-Ab” value in series [2] came out at 0%.

Consider `Cn1c(=O)[nH]c2[nH]c(=O)[nH]c2c1=O` [1-Methyluric acid], for which the “% Cross-Reaction AAMU-Ab” value in series [1] was 0%. Further, in series [2], the “% Cross-Reaction IX-Ab” value worked out at 11%.

Turning to `Cn1c(=O)[nH]c2[nH]c(=O)n(C)c2c1=O` [1,7-Dimethyluric acid], the “% Cross-Reaction AAMU-Ab” value in series [1] was determined as 0%. The “% Cross-Reaction IX-Ab” value in series [2] is recorded as 0%.

For `Cn1cnc2[nH]c(=O)[nH]c(=O)c21` [7-Methyl Xanthine], in series [1], the “% Cross-Reaction AAMU-Ab” value is reported as 0%. The “% Cross-Reaction IX-Ab” value in series [2] was determined as 0%.

Take `COc1ccc(Cc2nccc3cc(OC)c(OC)cc23)cc1OC` [Papaverine]: in series [3] (after 1 year of treatment), the penile fibrosis entry was “up to 60%”. In series [3] (alone or with phentolamine, mixed populations of impotent men), the response rates result is reported as “about 50%”. In addition, in series [3] (intracavernosal), the “average duration of erection” value is 50 min.

As to `Cn1c(=O)c2c(ncn2C)n(C)c1=O` [1,3,7-Trimethyl Xanthine (Caffeine), 1,3,7-Trimethyl Xanthine], the “% Cross-Reaction AAMU-Ab” value in series [1] came to 0%. Besides, the “% Cross-Reaction IX-Ab” value in series [2] worked out at 0%.

As to `Cn1cnc2c1c(=O)[nH]c(=O)n2C` [3,7-Dimethyl Xanthine (Theobromine), 3,7-Dimethyl Xanthine], the “% Cross-Reaction AAMU-Ab” value in series [1] is given as 0%. The “% Cross-Reaction IX-Ab” value in series [2] is recorded as 0%.

With `Cn1c(=O)[nH]c(=O)c2[nH]cnc21` [3-Methyl Xanthine], the “% Cross-Reaction AAMU-Ab” value in series [1] was determined as 0%. Moreover, the “% Cross-Reaction IX-Ab” value in series [2] was 0%.

`COc1ccc2c(c1)[C@]13CCCC[C@@H]1[C@H](C2)N(C)CC3` [Dextromethorphan]: the “mean performance +/−SE” value is reported as 95+/−0.5% in series [4] (EMs (extensive metabolizers)) and 86+/−6% in series [4] (PMs (poor metabolizers)).

Consider `Cn1c(=O)[nH]c2nc[nH]c2c1=O` [1-Methyl Xanthine (1x), 1-Methyl Xanthine], for which the “% Cross-Reaction AAMU-Ab” value in series [1] is 0%. For the same compound, the “% Cross-Reaction IX-Ab” value in series [2] turned out to be 100%.

With `CCCCC[C@H](O)/C=C/[C@H]1[C@H](O)CC(=O)[C@@H]1CCCCCCC(=O)O` [Alprostadil, prostaglandin E1], the “average duration of erection” value in series [3] (intracavernosal) was 64 min. In addition, in series [3] (setting [7]), the “attempts in which erections were achieved” value is listed as 87% and the “men who achieved erections” value is “Ninety-four”.

Turning to `O=c1[nH]cnc2nc[nH]c12` [Hypoxanthine], the “% Cross-Reaction AAMU-Ab” value in series [1] stood at 0%. In addition, the “% Cross-Reaction IX-Ab” value in series [2] is on record as 0%.

As to `Cc1nc2[nH]c(=O)[nH]c(=O)c2[nH]1` [8-Methyl Xanthine], the “% Cross-Reaction AAMU-Ab” value in series [1] was found to be 0%. Besides, the “% Cross-Reaction IX-Ab” value in series [2] worked out at 0%.

As for `Cn1c(=O)c2[nH]cnc2n(C)c1=O` [1,3-Dimethyl Xanthine (Theophylline), 1,3-Dimethyl Xanthine], the “% Cross-Reaction AAMU-Ab” value in series [1] is 0%. Also, in series [2], the “% Cross-Reaction IX-Ab” value was 0.2%.

For the compound `CC(=O)Nc1c(N)n(C)c(=O)[nH]c1=O` [5-Acetamino-6-amino-1-methyluracil], the “% Cross-Reaction AAMU-Ab” value in series [1] is 100%. Moreover, the “% Cross-Reaction IX-Ab” value in series [2] worked out at 0%.

As for `CC(=O)Nc1c(N)[nH]c(=O)[nH]c1=O` [5-Acetamino-6-amino-uracil], the “% Cross-Reaction AAMU-Ab” value in series [1] amounted to 0.6%. In series [2], the “% Cross-Reaction IX-Ab” value worked out at 0%.

`Nc1ccc(S(=O)(=O)c2ccc(N)cc2)cc1` [dapsone, Dapsone]: the adverse reactions in series [5] (fast acetylators) was 17%; in series [5] (slow acetylators) it was 46%.

`CCCc1nn(C)c2c(=O)[nH]c(-c3cc(S(=O)(=O)N4CCN(C)CC4)ccc3OCC)nc12` [sildenafil, Sildenafil]: in series [6], the “deaths identified as having cardiovascular events” value was “Forty-six”, the “deaths with definite or suspected myocardial infarction” value is recorded as 21 and the “individual deaths reported after prescription” value is 123.

With `O=c1cc[nH]c(=O)[nH]1` [Uracil], the “% Cross-Reaction AAMU-Ab” value in series [1] is 0%. The “% Cross-Reaction IX-Ab” value in series [2] amounted to 0%.

Consider `CC(=O)Nc1c(N)n(C)c(=O)n(C)c1=O` [5-Acetamino-6-amino-1,3-dimethyluracil], for which the “% Cross-Reaction AAMU-Ab” value in series [1] amounted to 0%. In addition, in series [2], the “% Cross-Reaction IX-Ab” value was 0%.
